In ChEMBL document CHEMBL1150323, “Peptomeric analogues of trypsin inhibitor SFTI-1 isolated from sunflower seeds” (Bioorg Med Chem, 2008):
Blank lines part the entries; values can stand above or below the compound they belong to. The source made the active and inactive calls. The rule behind the calls is not given here. Positions of bridges follow the written chain, without caps; N, C: chain ends. Non-standard residues stand in square brackets, D forms with d. Residues, ends and D or L forms follow the SMILES beside them. Nphe = O=C(O)CNCc1ccccc1; Abu = CC[C@H](N)C(=O)O; Nlys = NCCCCNCC(=O)O

Key:
[1] = molecular target: T1, Serine protease 1 (Bos taurus) (UniProt P00760); assay: Inhibition of bovine beta trypsin assessed as residual activity by spectrophotometry
T1 sequence (whole entry): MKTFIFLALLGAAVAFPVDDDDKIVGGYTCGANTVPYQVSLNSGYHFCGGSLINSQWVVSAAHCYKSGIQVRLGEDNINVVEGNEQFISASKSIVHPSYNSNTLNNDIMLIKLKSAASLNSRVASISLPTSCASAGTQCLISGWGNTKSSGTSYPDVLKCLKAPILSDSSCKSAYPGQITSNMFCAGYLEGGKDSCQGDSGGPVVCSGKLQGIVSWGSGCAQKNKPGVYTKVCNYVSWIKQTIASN

[2] = Proteolytic stability assessed as half life of trypsin-mediated hydrolysis by RP-HPLC; assay type: ADME
Bos taurus [3] = species: Bos taurus; assay: Inhibition of bovine alpha chymotrypsin assessed as residual activity by spectrophotometry
[4] = molecular target: T1, Serine protease 1 (Bos taurus); assay: Inhibition of bovine beta trypsin assessed as residual activity after 60 mins by spectrophotometry
Bos taurus [5] = species: Bos taurus; assay: Inhibition of bovine alpha chymotrypsin assessed as residual activity after 3 hrs by spectrophotometry
[6] = Proteolytic stability assessed as trypsin-mediated hydrolysis at pH 8.3 after 24 hrs by RP-HPLC; assay type: ADME; details: read-out: Activity
Bos taurus [7] = species: Bos taurus; assay: Inhibition of bovine alpha chymotrypsin assessed as residual activity after 40 mins by spectrophotometry
[8] = molecular target: T1, Serine protease 1 (Bos taurus); assay: Inhibition of bovine beta trypsin assessed as residual activity after 40 mins by spectrophotometry

Compound: CC[C@H](C)[C@@H]1NC(=O)[C@@H]2CCCN2C(=O)[C@@H]2CCCN2C(=O)[C@H]([C@@H](C)CC)NC(=O)[C@H](CO)NC(=O)[C@H](CCCCN)NC(=O)[C@H]([C@@H](C)O)NC(=O)[C@@H](NC(=O)[C@H](CCCNC(=N)N)NC(=O)CN)CSSC[C@@H](C(=O)N[C@@H](Cc2ccccc2)C(=O)N2CCC[C@H]2C(=O)N[C@@H](CC(=O)O)C(=O)O)NC1=O
Ka [1]: 9.9 ×10⁹ /M
half-life [2]: 2.75 h
Ka (Bos taurus [3]): 4.9 ×10⁶ /M

Compound: CC[C@H](C)[C@@H]1NC(=O)[C@@H]2CCCN2C(=O)[C@@H]2CCCN2C(=O)[C@H]([C@@H](C)CC)NC(=O)[C@H](CO)NC(=O)CN(Cc2ccccc2)C(=O)[C@H]([C@@H](C)O)NC(=O)[C@@H](NC(=O)[C@H](CCCNC(=N)N)NC(=O)CN)CSSC[C@@H](C(=O)N[C@@H](Cc2ccccc2)C(=O)N2CCC[C@H]2C(=O)N[C@@H](CC(=O)O)C(=O)O)NC1=O (H-GRCT[Nphe]SIPPICFPD-OH; disulfide 3-11)
Ka (Bos taurus [3]): 3.8 ×10⁸ /M

Compound: CC[C@@H]1NC(=O)[C@H](CCCNC(=N)N)NC(=O)CNC(=O)[C@H](CC(=O)O)NC(=O)[C@@H]2CCCN2C(=O)[C@H](Cc2ccccc2)NC(=O)[C@H](CC)NC(=O)[C@H]([C@@H](C)CC)NC(=O)[C@@H]2CCCN2C(=O)[C@@H]2CCCN2C(=O)[C@H]([C@@H](C)CC)NC(=O)[C@H](CO)NC(=O)[C@H](Cc2ccccc2)NC(=O)[C@H]([C@@H](C)O)NC1=O (cyclo([Abu]FPDGR[Abu]TFSIPPI))
Ka (Bos taurus [5]): 1.1 ×10¹⁰ /M
half-life [2]: 5.9 h
metabolised at 24 h [6]: 30%

Compound: CC[C@@H]1NC(=O)[C@H](CCCNC(=N)N)NC(=O)CNC(=O)[C@H](CC(=O)O)NC(=O)[C@@H]2CCCN2C(=O)[C@H](Cc2ccccc2)NC(=O)[C@H](CC)NC(=O)[C@H]([C@@H](C)CC)NC(=O)[C@@H]2CCCN2C(=O)[C@@H]2CCCN2C(=O)[C@H]([C@@H](C)CC)NC(=O)[C@H](CO)NC(=O)CN(Cc2ccccc2)C(=O)[C@H]([C@@H](C)O)NC1=O
half-life [2]: 5.87 h

Compound: CC[C@H](NC(=O)[C@H](CCCNC(=N)N)NC(=O)CN)C(=O)N[C@H](C(=O)N(CC(=O)N[C@@H](CO)C(=O)N[C@H](C(=O)N1CCC[C@H]1C(=O)N1CCC[C@H]1C(=O)N[C@H](C(=O)N[C@@H](CC)C(=O)N[C@@H](Cc1ccccc1)C(=O)N1CCC[C@H]1C(=O)N[C@@H](CC(=O)O)C(=O)O)[C@@H](C)CC)[C@@H](C)CC)Cc1ccccc1)[C@H](C)O
Ka (Bos taurus [7]): 7 ×10⁷ /M

Compound: CC[C@H](NC(=O)CNCCCCN)C(=O)N[C@H](C(=O)N(CCCCN)CC(=O)N[C@@H](CO)C(=O)N[C@H](C(=O)N1CCC[C@H]1C(=O)N1CCC[C@H]1C(=O)N[C@H](C(=O)N[C@@H](CC)C(=O)N[C@@H](Cc1ccccc1)C(=O)N1CCC[C@@H]1C(=O)N[C@@H](CC(=O)O)C(=O)O)[C@@H](C)CC)[C@@H](C)CC)[C@H](C)O
Activity [1]: inactive

Compound: CC[C@H](C)[C@@H]1NC(=O)[C@@H]2CCCN2C(=O)[C@@H]2CCCN2C(=O)[C@H]([C@@H](C)CC)NC(=O)[C@H](CO)NC(=O)CN(CCCCN)C(=O)[C@H]([C@@H](C)O)NC(=O)[C@@H](NC(=O)[C@H](CCCNC(=N)N)NC(=O)CN)CSSC[C@@H](C(=O)N[C@@H](Cc2ccccc2)C(=O)N2CCC[C@H]2C(=O)N[C@@H](CC(=O)O)C(=O)O)NC1=O
Ka [1]: 1 ×10⁸ /M

Compound: CC[C@H](C)[C@@H]1NC(=O)[C@@H]2CCCN2C(=O)[C@@H]2CCCN2C(=O)[C@H]([C@@H](C)CC)NC(=O)[C@H](CO)NC(=O)[C@H](CCCCN)NC(=O)[C@H]([C@@H](C)O)NC(=O)[C@@H]2CSSC[C@H](NC1=O)C(=O)N[C@@H](Cc1ccccc1)C(=O)N1CCC[C@H]1C(=O)N[C@@H](CC(=O)O)C(=O)NCC(=O)N[C@@H](CCCNC(=N)N)C(=O)N2
half-life [2]: 7.25 h
Ka (Bos taurus [3]): 4.9 ×10⁶ /M

Compound: CC[C@@H]1NC(=O)[C@H](CCCNC(=N)N)NC(=O)CNC(=O)[C@H](CC(=O)O)NC(=O)[C@@H]2CCCN2C(=O)[C@H](Cc2ccccc2)NC(=O)[C@H](CC)NC(=O)[C@H]([C@@H](C)CC)NC(=O)[C@@H]2CCCN2C(=O)[C@@H]2CCCN2C(=O)[C@H]([C@@H](C)CC)NC(=O)[C@H](CO)NC(=O)CN(Cc2ccccc2)C(=O)[C@H]([C@H](C)O)NC1=O
Ka (Bos taurus [7]): 6.2 ×10⁷ /M

Further lines, results first:

Ka [4]: 1.9 ×10⁸ /M
Compound: CC[C@@H]1NC(=O)[C@H](CCCNC(=N)N)NC(=O)CNC(=O)[C@H](CC(=O)O)NC(=O)[C@@H]2CCCN2C(=O)[C@H](Cc2ccccc2)NC(=O)[C@H](CC)NC(=O)[C@H]([C@@H](C)CC)NC(=O)[C@@H]2CCCN2C(=O)[C@@H]2CCCN2C(=O)[C@H]([C@@H](C)CC)NC(=O)[C@H](CO)NC(=O)CN(CCCCN)C(=O)[C@H]([C@H](C)O)NC1=O

metabolised at 24 h [6]: 7%
Compound: CC[C@H](NC(=O)[C@H](CCCNC(=N)N)NC(=O)CN)C(=O)N[C@H](C(=O)N(CC(=O)N[C@@H](CO)C(=O)N[C@H](C(=O)N1CCC[C@H]1C(=O)N1CCC[C@H]1C(=O)N[C@H](C(=O)N[C@@H](CC)C(=O)N[C@@H](Cc1ccccc1)C(=O)N1CCC[C@H]1C(=O)N[C@@H](CC(=O)O)C(=O)O)[C@@H](C)CC)[C@@H](C)CC)Cc1ccccc1)[C@@H](C)O

half-life [2]: 1.37 h
Compound: CC[C@@H]1NC(=O)[C@H](CCCNC(=N)N)NC(=O)CNC(=O)[C@H](CC(=O)O)NC(=O)[C@@H]2CCCN2C(=O)[C@H](Cc2ccccc2)NC(=O)[C@H](CC)NC(=O)[C@H]([C@@H](C)CC)NC(=O)[C@@H]2CCCN2C(=O)[C@@H]2CCCN2C(=O)[C@H]([C@@H](C)CC)NC(=O)[C@H](CO)NC(=O)CN(CCCCN)C(=O)[C@H]([C@@H](C)O)NC1=O

half-life [2]: 1.25 h
Compound: CC[C@H](NC(=O)[C@H](CCCNC(=N)N)NC(=O)CN)C(=O)N[C@H](C(=O)N[C@@H](Cc1ccccc1)C(=O)N[C@@H](CO)C(=O)N[C@H](C(=O)N1CCC[C@H]1C(=O)N1CCC[C@H]1C(=O)N[C@H](C(=O)N[C@@H](CC)C(=O)N[C@@H](Cc1ccccc1)C(=O)N1CCC[C@H]1C(=O)N[C@@H](CC(=O)O)C(=O)O)[C@@H](C)CC)[C@@H](C)CC)[C@@H](C)O

Activity [1]: inactive
Compound: CC[C@H](NC(=O)[C@@H](NC(=O)[C@@H]1CCCN1C(=O)[C@@H]1CCCN1C(=O)[C@@H](NC(=O)[C@H](CO)NC(=O)CN(CCCCN)C(=O)[C@@H](NC(=O)[C@H](CC)NC(=O)[C@@H](N)CCCCN)[C@H](C)O)[C@@H](C)CC)[C@@H](C)CC)C(=O)N[C@@H](Cc1ccccc1)C(=O)N1CCC[C@H]1C(=O)N[C@@H](CC(=O)O)C(=O)O

half-life [2]: 3.03 h
Ka (Bos taurus [3]): 2 ×10⁹ /M
Compound: CC[C@H](C)[C@@H]1NC(=O)[C@@H]2CCCN2C(=O)[C@@H]2CCCN2C(=O)[C@H]([C@@H](C)CC)NC(=O)[C@H](CO)NC(=O)[C@H](Cc2ccccc2)NC(=O)[C@H]([C@@H](C)O)NC(=O)[C@@H](NC(=O)[C@H](CCCNC(=N)N)NC(=O)CN)CSSC[C@@H](C(=O)N[C@@H](Cc2ccccc2)C(=O)N2CCC[C@H]2C(=O)N[C@@H](CC(=O)O)C(=O)O)NC1=O (H-GRCTFSIPPICFPD-OH; disulfide 3-11)

Activity (Bos taurus [3]): inactive
Compound: CC[C@H](NC(=O)[C@H](CCCNC(=N)N)NC(=O)CN)C(=O)N[C@H](C(=O)N[C@@H](Cc1ccccc1)C(=O)N[C@@H](CO)C(=O)N[C@H](C(=O)N1CCC[C@H]1C(=O)N1CCC[C@H]1C(=O)N[C@H](C(=O)N[C@@H](CC)C(=O)N[C@@H](Cc1ccccc1)C(=O)N1CCC[C@H]1C(=O)N[C@@H](CC(=O)O)C(=O)O)[C@@H](C)CC)[C@@H](C)CC)[C@H](C)O

half-life [2]: 1.1 h
Compound: CC[C@H](NC(=O)[C@H](CCCNC(=N)N)NC(=O)CN)C(=O)N[C@H](C(=O)N(CCCCN)CC(=O)N[C@@H](CO)C(=O)N[C@H](C(=O)N1CCC[C@H]1C(=O)N1CCC[C@H]1C(=O)N[C@H](C(=O)N[C@@H](CC)C(=O)N[C@@H](Cc1ccccc1)C(=O)N1CCC[C@H]1C(=O)N[C@@H](CC(=O)O)C(=O)O)[C@@H](C)CC)[C@@H](C)CC)[C@@H](C)O (H-GR[Abu]T[Nlys]SIPPI[Abu]FPD-OH)

Ka [8]: 8 ×10⁷ /M
Compound: CC[C@H](C)[C@@H]1NC(=O)[C@@H]2CCCN2C(=O)[C@@H]2CCCN2C(=O)[C@H]([C@@H](C)CC)NC(=O)[C@H](CO)NC(=O)CN(CCCCN)C(=O)[C@H]([C@H](C)O)NC(=O)[C@@H](NC(=O)[C@@H](N)CCCCN)CSSC[C@@H](C(=O)N[C@@H](Cc2ccccc2)C(=O)N2CCC[C@H]2C(=O)N[C@@H](CC(=O)O)C(=O)O)NC1=O
